{"source": "PubChem BioAssay AID330", "about": "(DTP/NCI, 2004)", "test_system": "P388 leukemia ip, CD2F1 mice, survival T/C", "experiment": "NCI In Vivo Anticancer Drug Screen. Data for tumor model P388 Leukemia (intraperitoneal) in CD2F1 (CDF1) mice", "details": "endpoint: median survival time, higher = longer survival", "in_short": "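Mice carrying the transplanted tumor received test compound or vehicle. Survival was recorded in each group, and the value is the treated-group measurement divided by that of the vehicle-treated control group.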", "key": {"[1]": {"details": "dose: 25.0 mg/kg/injection, schedule: Q01DX009 (ip), vehicle: saline"}, "[2]": {"details": "dose: 50.0 mg/kg/injection, schedule: Q01DX009 (ip), vehicle: saline"}}, "note": "Inconclusive results and toxic doses are left out. Numbered stars: 1 amine (or outer) side, 2 acyl side, 3 side chain; on linkers, the order of the positions; unused ones are H or OH. Bridge positions count the residues as written; N and C are the ends. Square brackets hold non-standard residues; d marks the D form. Peptide text beside a SMILES is read from it. I, II: the chains in the order shown. Actinocin(9to1) = Cc1c2oc3c(C)ccc(C(=O)[*:1])c3nc-2c(C(=O)[*:2])c(N)c1=O; NMeV = CN[CH](C(=O)O)C(C)C; Sar = CNCC(=O)O"}
{"compound": "C/C=C/c1cnc2nc(N)nc(N)c2n1", "values": [{"measurement": "T/C", "setting": "dose: 100.0 mg/kg/injection, schedule: Q04DX002 (ip), vehicle: saline with Tween-80", "value": "99 % of control"}, {"measurement": "T/C", "setting": "dose: 200.0 mg/kg/injection, schedule: Q04DX002 (ip), vehicle: saline with Tween-80", "value": "104 % of control"}, {"measurement": "T/C", "setting": "dose: 400.0 mg/kg/injection, schedule: Q04DX002 (ip), vehicle: saline with Tween-80", "value": "107 % of control"}]}
{"compound": "CCN(CC)Cc1cc(N2C(=O)CC3(CCCC3)C2=O)ccc1O", "values": [{"measurement": "T/C", "setting": "dose: 100.0 mg/kg/injection, schedule: Q04DX003 (ip), vehicle: Klucel (hydroxypropylcellulose) (HPC)", "value": "100 % of control"}, {"measurement": "T/C", "setting": "dose: 200.0 mg/kg/injection, schedule: Q04DX003 (ip), vehicle: Klucel (hydroxypropylcellulose) (HPC)", "value": "102 % of control"}, {"measurement": "T/C", "setting": "dose: 400.0 mg/kg/injection, schedule: Q04DX003 (ip), vehicle: Klucel (hydroxypropylcellulose) (HPC)", "value": "105 % of control"}]}
{"compound": "O=C1C=CC2=C3c4cc(O)c(O)cc4CC3(O)COC2=C1O", "note": "(configuration not stated)", "values": [{"measurement": "T/C", "setting": "dose: 6.25 mg/kg/injection, schedule: Q01DX009 (ip), vehicle: saline", "value": "102 % of control"}, {"measurement": "T/C", "setting": "dose: 12.5 mg/kg/injection, schedule: Q01DX009 (ip), vehicle: saline", "value": "108 % of control"}, {"measurement": "T/C", "setting": "[1]", "value": "118 % of control"}, {"measurement": "T/C", "setting": "[2]", "value": "108 % of control"}]}
{"compound": "COc1ccc(C(=O)CC(C(=O)O)c2ccc(OC)c(OC)c2)cc1OC", "note": "(configuration not stated)", "values": [{"measurement": "T/C", "setting": "dose: 100.0 mg/kg/injection, schedule: Q04DX003 (ip), vehicle: saline with Tween-80", "value": "90 % of control"}, {"measurement": "T/C", "setting": "dose: 200.0 mg/kg/injection, schedule: Q04DX003 (ip), vehicle: saline with Tween-80", "value": "86 % of control"}, {"measurement": "T/C", "setting": "dose: 400.0 mg/kg/injection, schedule: Q04DX003 (ip), vehicle: saline with Tween-80", "value": "86 % of control"}]}
{"compound": "Cc1c2oc3c(C)ccc(C(=O)NC4C(=O)NC(C(C)C)C(=O)N(C)CC(=O)N(C)CC(=O)N(C)C(C(C)C)C(=O)OC4C)c3nc-2c(C(=O)NC2C(=O)NC(C(C)C)C(=O)N(C)CC(=O)N(C)CC(=O)N(C)C(C(C)C)C(=O)OC2C)c(N)c1=O", "note": "(configuration not stated) (I: TV[Sar][Sar][NMeV] / II: TV[Sar][Sar][NMeV]; ester I:1-I:C, II:1-II:C; linker I:N-II:N via Actinocin(9to1); configuration not given here)", "values": [{"measurement": "T/C", "setting": "dose: 0.1 mg/kg/injection, schedule: Q01DX009 (ip), vehicle: water", "value": "164 % of control"}, {"measurement": "T/C", "setting": "dose: 0.18 mg/kg/injection, schedule: Q01DX009 (ip), vehicle: other", "value": "166 % of control"}, {"measurement": "T/C", "setting": "dose: 0.2 mg/kg/injection, schedule: Q01DX009 (ip), vehicle: water", "value": "166 % of control"}, {"measurement": "T/C", "setting": "dose: 0.27 mg/kg/injection, schedule: Q01DX009 (ip), vehicle: other", "value": "202 % of control"}, {"measurement": "T/C", "setting": "dose: 0.4 mg/kg/injection, schedule: Q01DX009 (ip), vehicle: other", "value": "200 % of control"}, {"measurement": "T/C", "setting": "dose: 0.4 mg/kg/injection, schedule: Q01DX009 (ip), vehicle: water", "value": "205 % of control"}, {"measurement": "T/C", "setting": "dose: 0.6 mg/kg/injection, schedule: Q01DX009 (ip), vehicle: other", "value": "270 % of control"}, {"measurement": "T/C", "setting": "dose: 0.8 mg/kg/injection, schedule: Q01DX009 (ip), vehicle: water", "value": "156 % of control"}, {"measurement": "T/C", "setting": "dose: 1.6 mg/kg/injection, schedule: Q01DX009 (ip), vehicle: water", "value": "88 % of control"}]}
{"compound": "COC(=O)C1(C)C(=O)NC(=O)CC1C", "note": "(configuration not stated)", "values": [{"measurement": "T/C", "setting": "dose: 50.0 mg/kg/injection, schedule: Q01DX005 (ip), vehicle: Klucel (hydroxypropylcellulose) (HPC)", "value": "105 % of control"}, {"measurement": "T/C", "setting": "dose: 100.0 mg/kg/injection, schedule: Q01DX005 (ip), vehicle: Klucel (hydroxypropylcellulose) (HPC)", "value": "101 % of control"}, {"measurement": "T/C", "setting": "dose: 200.0 mg/kg/injection, schedule: Q01DX005 (ip), vehicle: Klucel (hydroxypropylcellulose) (HPC)", "value": "87 % of control"}]}
{"compound": "COC(=O)/C=C/c1ccccc1-c1ccccc1/C=C/C(=O)OC", "values": [{"measurement": "T/C", "setting": "dose: 100.0 mg/kg/injection, schedule: Q04DX003 (ip), vehicle: saline", "value": "105 % of control"}, {"measurement": "T/C", "setting": "dose: 200.0 mg/kg/injection, schedule: Q04DX003 (ip), vehicle: saline", "value": "102 % of control"}, {"measurement": "T/C", "setting": "dose: 400.0 mg/kg/injection, schedule: Q04DX003 (ip), vehicle: saline", "value": "100 % of control"}]}
{"compound": "C=C1CC=CC(C)(C)C12CC(Br)C(C)(Cl)CC2O", "note": "(configuration not stated)", "values": [{"measurement": "T/C", "setting": "dose: 10.0 mg/kg/injection, schedule: Q01DX009 (ip), vehicle: Klucel (hydroxypropylcellulose) (HPC)", "value": "115 % of control"}, {"measurement": "T/C", "setting": "dose: 20.0 mg/kg/injection, schedule: Q01DX009 (ip), vehicle: Klucel (hydroxypropylcellulose) (HPC)", "value": "109 % of control"}, {"measurement": "T/C", "setting": "dose: 40.0 mg/kg/injection, schedule: Q01DX009 (ip), vehicle: Klucel (hydroxypropylcellulose) (HPC)", "value": "106 % of control"}]}
{"compound": "NC(N)=N/N=C/c1ccc(Cl)cc1Cl", "values": [{"measurement": "T/C", "setting": "[1]", "value": "104 % of control"}, {"measurement": "T/C", "setting": "[2]", "value": "106 % of control"}]}
{"compound": "CNC(=O)N(C)C1OC(CO)C(O)C1O", "note": "(configuration not stated)", "values": [{"measurement": "T/C", "setting": "dose: 100.0 mg/kg/injection, schedule: Q04DX003 (ip), vehicle: water", "value": "113 % of control"}, {"measurement": "T/C", "setting": "dose: 200.0 mg/kg/injection, schedule: Q04DX003 (ip), vehicle: water", "value": "119 % of control"}, {"measurement": "T/C", "setting": "dose: 400.0 mg/kg/injection, schedule: Q04DX003 (ip), vehicle: water", "value": "119 % of control"}]}
{"compound": "Cc1[nH]c2ccc(N(C)C)cc2c(=O)c1CN1CCCCC1", "values": [{"measurement": "T/C", "setting": "dose: 50.0 mg/kg/injection, schedule: Q01DX009 (ip), vehicle: Klucel (hydroxypropylcellulose) (HPC)", "value": "106 % of control"}, {"measurement": "T/C", "setting": "dose: 100.0 mg/kg/injection, schedule: Q01DX009 (ip), vehicle: Klucel (hydroxypropylcellulose) (HPC)", "value": "100 % of control"}, {"measurement": "T/C", "setting": "dose: 200.0 mg/kg/injection, schedule: Q01DX009 (ip), vehicle: Klucel (hydroxypropylcellulose) (HPC)", "value": "108 % of control"}]}
{"compound": "CCOC(=O)c1ccc(N2C(=O)C(Cl)(c3ccccc3)C2c2ccco2)cc1", "note": "(configuration not stated)", "values": [{"measurement": "T/C", "setting": "dose: 60.0 mg/kg/injection, schedule: Q01DX005 (ip), vehicle: saline with Tween-80", "value": "100 % of control"}, {"measurement": "T/C", "setting": "dose: 120.0 mg/kg/injection, schedule: Q01DX005 (ip), vehicle: saline with Tween-80", "value": "95 % of control"}, {"measurement": "T/C", "setting": "dose: 240.0 mg/kg/injection, schedule: Q01DX005 (ip), vehicle: saline with Tween-80", "value": "94 % of control"}]}
